PubChem BioAssay (NCI)
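Five concentrations, 48 hours, 96-well plates. TGI is the concentration that stops growth completely.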

Key:
Assay in all cases: NCI tumour cell line growth inhibition, 48 h
[1] = tested on: COLO 205 colon
[2] = tested on: SR leukemia
[3] = tested on: LOX IMVI melanoma
[4] = tested on: HS 578T breast
[5] = tested on: NCI/ADR-RES ovarian
[6] = tested on: RPMI-8226 leukemia
[7] = tested on: SF-295 CNS

SMILES	TGI [1] [µM]	TGI [2] [µM]	TGI [3] [µM]	TGI [4] [µM]	TGI [5] [µM]	TGI [6] [µM]	TGI [7] [µM]
CCOC(=O)C(NC(=O)c1cccc(Cl)c1)(Nc1cccc(C)c1)C(F)(F)F (stereo not given)	36.2	> 100	30.7	49.4	38.8	> 100	–
O=C(c1ccc([N+](=O)[O-])cc1)N1CCCC1	–	> 100	> 100	> 100	> 100	> 100	> 100
CC(=O)Oc1ccc2c(-c3ccccc3)c(Oc3ccc(Cl)cc3)c(=O)oc2c1	–	84.4	36.7	43.8	–	> 100	32.4
CCOC(=O)N1CCN(c2c(N)nc(C)[nH]c2=O)CC1	> 100	> 100	> 100	> 100	> 100	> 100	> 100
Cc1c(C(=O)NNc2ccccc2)n2c(=S)[nH]nc2c2ccccc12	> 100	> 100	> 100	> 100	> 100	> 100	> 100
CN1C2=Nc3n(c4ccccc4[n+]3C)CN2c2ccccc21	41.9	81.5	–	90.8	> 100	> 100	> 100
C=C1C[C@@H]2O[C@H]3[C@H]4[C@@H](C[C@@H](C)[C@@H](OC(C)=O)[C@H]42)[C@@H](C)CO[C@@]3(C)[C@H](OC(=O)CCCCCCC)CC1=O	27.3	37.2	30.1	39.7	35.5	13.1	33.6
Cc1nc2c(=O)n(-c3ccccc3)c(=O)n(-c3ccccc3)c2o1	> 100	> 100	> 100	> 100	> 100	> 100	> 100
CC1(C)OCC(C2OC(C)(C)OC2[C@H]2O[C@@]3(O)[C@H]4[C@H](C=CC[C@@H]42)[C@@H](OCc2ccccc2)[C@H](OCc2ccccc2)[C@H]3OCc2ccccc2)O1 (stereo not given in full)	> 100	31.4	> 100	> 100	> 100	–	> 100
CCOC(=O)/C=C/CCC(C)(C)COC(C)=O	> 10	> 10	> 10	> 10	> 10	> 10	> 10
CCc1nc2c(c(N(C)C)c1C(=O)OC)CCc1ccccc1-2	41.8	32.9	> 100	> 100	> 100	46.6	50.9
NC(=O)c1ccc[n+](C2=C([O-])c3ccccc3C(=O)/C2=N\S(=O)(=O)c2ccccc2)c1	30.2	> 100	29.5	47.3	36.3	> 100	31.5
NCCCCNCCCN1CCOC1=O	> 100	> 100	> 100	> 100	> 100	> 100	> 100
